From PMC5290327, “SC83288 is a clinical development candidate for the treatment of severe malaria” (Nature Communications, 2017)

How the values were obtained:
5-HT1B = target: T1, 5-HT1B (Rattus norvegicus, UniProt P28564); assay: Radioligand binding
T1 construct: Cerep (contract screening)

NTS1 (NT1) (h) = target: T2, NTS1 (NT1) (h) (Homo sapiens, UniProt P30989); assay: Radioligand binding
T2 construct: Cerep

M3 (h) = target: T3, M3 (h) (Homo sapiens, UniProt P20309); assay: Radioligand binding
T3 construct: Cerep

[1] = tested on: 54 human transporters and receptors; assay: In vitro safety pharmacology profiling, whole panel; type: binding
Description: (§1) The study was carried out by Cerep (Celle l'Evescault, France). An in vitro pharmacological profiling panel was designed to detect potential high-risk clinical adverse drug reactions. The panel comprised of 54 targets.
(§2) The specific ligand binding to the receptors was defined as the difference between the total binding and the non-specific binding determined in the presence of an excess of unlabelled ligand. Results were expressed as a per cent of control specific binding and as a per cent inhibition of control specific obtained in the presence of the test compounds. Results showing an inhibition (or stimulation) >50% were considered to represent significant effects of the test compounds. […] The IC50 values were determined by non-linear regression analysis of the competition curves generated with mean replicate values using Hill equation curve fitting. The inhibition constants (Ki) were calculated using the Cheng Prusoff equation.

[2] = In vitro metabolism in liver microsomes; settings: rat liver microsomes, 10 μM
MC4 (h) = target: T4, MC4 (h) (Homo sapiens, UniProt P32245); assay: Radioligand binding
T4 construct: Cerep

A2A (h) = target: T5, A2A (h) (Homo sapiens, UniProt P29274); assay: Radioligand binding
T5 construct: Cerep (contract study)

a1 (non-selective) = assay: Radioligand binding
Description: as §1, §2

a2 (non-selective) = assay: Radioligand binding
Description: as §1, §2

[3] = tested on: Ca2+ channel (L, verapamil site); assay: Radioligand binding
Description: as §1, §2

5-HT2B (h) = target: T6, 5-HT2B (h) (Homo sapiens, UniProt P41595); assay: Radioligand binding
T6 construct: Cerep (contract screening)
Description: as §1, §2

sst (non-selective) = assay: Radioligand binding
Description: as §1, §2

[4] = tested on: 13 human cytochrome P450 enzymes; assay: Inhibition of cytochrome P450 enzymes, whole panel; settings: 10 μM
A1 (h) = target: T7, A1 (h) (Homo sapiens, UniProt P30542); assay: Radioligand binding
T7 construct: Cerep (contract study)

Permeability assay = type: in vitro ADME; settings: human; CACO 2 cells, 10 μM, apical side, 2 h
Description: The study was conducted by Cyprotex (Macclesfield, United Kingdom). CACO 2 cells (Sigma-Aldrich, catalogue: 86010202) were seeded on Millipore Millicell plates and formed a confluent monolayer over 20 days before the experiment. On day 20, the tested compounds at a final concentration of 10 μM were added to the apical side of the membrane. The transport of the compound across the monolayer was monitored over a 2 h period by liquid chromatography (LC)–MS/MS quantification. The permeability coefficient (Papp) was calculated from the following equation: [drawing 1] , where dQ/dt is the rate of permeation of the drug across the cells, C0 the donor compartment concentration at time zero and A the area of the cell monolayer. C0 was obtained from analysis of the dosing solution at the start of the experiment.

[5] = tested on: late stage (IV and V) gametocytes, NF54^Pfs16; assay: Gametocytocidal activity, luciferase assay; type: cell-based; settings: Plasmodium falciparum, 72 h
Description: (§3) Activity against early- and late-stage gametocytes was determined in miniaturized 384-wells plate assays as previously described. Briefly, gametocytes from a recombinant line NF54^Pfs16, expressing a green fluorescent protein–luciferase reporter gene under the gametocyte-specific Pfs16 promoter were induced and purified as previously described; gametocytes were then treated either on day 1 (stage I gametocytes) or day 8 of gametocytogenesis (stage IV gametocytes) with serially diluted SC81458 or SC83288 to achieve a final top concentration of 40 μM (0.4% dimethylsulphoxide(DMSO)). After 72 h of incubation, gametocyte inhibition was assessed by luminometry, after addition of Steadylite plus luciferase detection kit (PerkinElmer) to the plate wells[58][59].

[6] = tested on: early stage (I–III) gametocytes, NF54^Pfs16; assay: Gametocytocidal activity, luciferase assay; type: cell-based; settings: Plasmodium falciparum, 72 h
Description: as §3

[7] = tested on: P. falciparum strain NF54; assay: Growth inhibition assay; type: cell-based; settings: Plasmodium falciparum
CYP2D6 = CYP2D6 (Homo sapiens, UniProt P10635); assay: CYP inhibition, human liver microsomes; settings: CYP2D6, dextromethorphan to O-desmethyldextromethorphan, 10 µM
NK3 (h) = target: T8, NK3 (h) (Homo sapiens, UniProt P29371); assay: Radioligand binding
T8 construct: Cerep

CB1 (h) = target: T9, CB1 (h) (Homo sapiens, UniProt P21554); assay: Radioligand binding
T9 construct: Cerep (contract study)

Cl- channel (GABA-gated) = assay: Radioligand binding
Y2 (h) = target: T10, Y2 (h) (Homo sapiens, UniProt P49146); assay: Radioligand binding
T10 construct: Cerep

[8] = In vitro metabolism in liver microsomes; settings: monkey liver microsomes, 10 μM
V1a (h) = target: T11, V1a (h) (Homo sapiens, UniProt P37288); assay: Radioligand binding
T11 construct: Cerep (contract screening)

TP (h) (TXA2/PGH2) = target: T12, TP (h) (TXA2/PGH2) (Homo sapiens, UniProt P21731); assay: Radioligand binding
T12 construct: Cerep
T12 sequence (P21731 1-343): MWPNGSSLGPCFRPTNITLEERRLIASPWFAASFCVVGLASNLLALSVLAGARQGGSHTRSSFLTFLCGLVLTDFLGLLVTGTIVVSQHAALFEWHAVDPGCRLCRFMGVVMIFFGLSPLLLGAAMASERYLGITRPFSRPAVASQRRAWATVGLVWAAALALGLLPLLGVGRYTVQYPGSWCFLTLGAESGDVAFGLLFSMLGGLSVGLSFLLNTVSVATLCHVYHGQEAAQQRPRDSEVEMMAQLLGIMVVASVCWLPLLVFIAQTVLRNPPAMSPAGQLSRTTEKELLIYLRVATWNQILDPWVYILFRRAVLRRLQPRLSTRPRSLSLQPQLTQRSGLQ

[9] = target: T13, norepinephrine transporter (h) (Homo sapiens, UniProt P23975); assay: Radioligand binding
T13 construct: Cerep (contract screening)
T13 sequence (P23975 whole entry): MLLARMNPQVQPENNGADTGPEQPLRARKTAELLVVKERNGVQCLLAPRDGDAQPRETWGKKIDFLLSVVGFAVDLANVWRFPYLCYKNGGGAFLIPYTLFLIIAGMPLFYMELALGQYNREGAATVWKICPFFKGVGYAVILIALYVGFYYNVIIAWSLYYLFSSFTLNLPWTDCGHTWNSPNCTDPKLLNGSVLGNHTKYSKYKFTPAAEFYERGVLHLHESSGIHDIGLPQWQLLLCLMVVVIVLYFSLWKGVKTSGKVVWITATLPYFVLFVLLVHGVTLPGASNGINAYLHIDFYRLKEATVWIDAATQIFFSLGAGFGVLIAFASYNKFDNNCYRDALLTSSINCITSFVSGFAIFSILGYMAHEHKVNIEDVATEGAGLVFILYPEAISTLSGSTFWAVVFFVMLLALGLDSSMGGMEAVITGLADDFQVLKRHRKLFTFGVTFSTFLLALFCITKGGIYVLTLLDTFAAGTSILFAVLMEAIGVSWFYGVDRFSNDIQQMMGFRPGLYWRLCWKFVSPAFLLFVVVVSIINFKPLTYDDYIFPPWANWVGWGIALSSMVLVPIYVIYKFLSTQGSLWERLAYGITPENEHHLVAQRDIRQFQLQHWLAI

T4 sequence (P32245 whole entry): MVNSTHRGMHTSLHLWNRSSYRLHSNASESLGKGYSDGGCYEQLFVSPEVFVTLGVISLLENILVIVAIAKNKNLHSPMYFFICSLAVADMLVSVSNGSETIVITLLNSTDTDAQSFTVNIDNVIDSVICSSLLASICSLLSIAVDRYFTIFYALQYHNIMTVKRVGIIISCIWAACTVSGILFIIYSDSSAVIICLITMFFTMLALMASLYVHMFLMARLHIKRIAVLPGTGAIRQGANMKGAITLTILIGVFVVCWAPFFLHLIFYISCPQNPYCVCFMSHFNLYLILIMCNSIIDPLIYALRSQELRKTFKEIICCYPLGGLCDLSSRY
T3 sequence (P20309 whole entry): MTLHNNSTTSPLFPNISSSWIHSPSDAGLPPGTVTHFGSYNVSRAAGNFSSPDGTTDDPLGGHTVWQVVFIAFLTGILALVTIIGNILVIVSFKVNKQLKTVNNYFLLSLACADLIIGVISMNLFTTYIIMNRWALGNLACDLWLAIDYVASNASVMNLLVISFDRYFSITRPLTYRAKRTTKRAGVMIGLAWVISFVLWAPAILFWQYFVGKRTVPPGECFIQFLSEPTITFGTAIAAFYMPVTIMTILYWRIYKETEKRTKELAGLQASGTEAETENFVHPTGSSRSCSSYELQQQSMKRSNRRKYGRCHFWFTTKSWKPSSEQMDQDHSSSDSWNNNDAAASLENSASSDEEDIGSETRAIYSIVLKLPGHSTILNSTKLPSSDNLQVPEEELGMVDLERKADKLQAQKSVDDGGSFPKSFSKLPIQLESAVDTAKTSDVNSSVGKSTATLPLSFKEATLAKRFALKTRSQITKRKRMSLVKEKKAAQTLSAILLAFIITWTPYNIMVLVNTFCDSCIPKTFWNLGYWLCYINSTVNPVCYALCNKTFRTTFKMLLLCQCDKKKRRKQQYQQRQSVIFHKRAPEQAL
T1 sequence (P28564 whole entry): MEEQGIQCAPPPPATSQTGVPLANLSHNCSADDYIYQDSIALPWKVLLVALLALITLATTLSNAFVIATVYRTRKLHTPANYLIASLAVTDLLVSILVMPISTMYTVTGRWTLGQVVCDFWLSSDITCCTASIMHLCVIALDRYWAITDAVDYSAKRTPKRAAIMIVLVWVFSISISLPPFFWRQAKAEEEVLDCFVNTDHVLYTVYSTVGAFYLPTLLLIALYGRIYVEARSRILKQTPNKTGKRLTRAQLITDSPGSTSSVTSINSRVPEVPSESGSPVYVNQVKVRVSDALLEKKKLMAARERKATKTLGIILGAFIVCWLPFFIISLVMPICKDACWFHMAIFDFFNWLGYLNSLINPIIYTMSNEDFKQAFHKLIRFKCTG
T11 sequence (P37288 whole entry): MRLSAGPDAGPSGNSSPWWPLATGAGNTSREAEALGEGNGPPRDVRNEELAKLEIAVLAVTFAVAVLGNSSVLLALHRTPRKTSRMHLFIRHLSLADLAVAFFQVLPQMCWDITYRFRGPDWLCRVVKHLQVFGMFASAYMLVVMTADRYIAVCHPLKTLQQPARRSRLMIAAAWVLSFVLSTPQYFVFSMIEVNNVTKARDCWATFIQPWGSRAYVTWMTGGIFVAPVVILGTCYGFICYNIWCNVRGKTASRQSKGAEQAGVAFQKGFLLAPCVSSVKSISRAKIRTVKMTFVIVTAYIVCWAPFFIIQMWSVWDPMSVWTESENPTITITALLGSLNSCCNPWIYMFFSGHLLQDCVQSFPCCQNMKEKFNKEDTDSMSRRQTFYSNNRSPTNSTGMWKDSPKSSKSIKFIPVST
T2 sequence (P30989 whole entry): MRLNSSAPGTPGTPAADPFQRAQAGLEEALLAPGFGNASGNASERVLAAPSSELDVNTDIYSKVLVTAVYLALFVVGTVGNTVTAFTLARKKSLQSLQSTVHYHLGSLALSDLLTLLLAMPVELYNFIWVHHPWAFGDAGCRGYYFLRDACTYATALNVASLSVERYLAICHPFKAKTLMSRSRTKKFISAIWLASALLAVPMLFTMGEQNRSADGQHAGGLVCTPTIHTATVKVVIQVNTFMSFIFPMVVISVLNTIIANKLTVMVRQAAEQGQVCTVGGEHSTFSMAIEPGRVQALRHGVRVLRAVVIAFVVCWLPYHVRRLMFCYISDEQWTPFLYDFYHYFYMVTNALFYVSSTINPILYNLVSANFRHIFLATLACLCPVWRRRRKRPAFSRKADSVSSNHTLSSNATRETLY
T8 sequence (P29371 whole entry): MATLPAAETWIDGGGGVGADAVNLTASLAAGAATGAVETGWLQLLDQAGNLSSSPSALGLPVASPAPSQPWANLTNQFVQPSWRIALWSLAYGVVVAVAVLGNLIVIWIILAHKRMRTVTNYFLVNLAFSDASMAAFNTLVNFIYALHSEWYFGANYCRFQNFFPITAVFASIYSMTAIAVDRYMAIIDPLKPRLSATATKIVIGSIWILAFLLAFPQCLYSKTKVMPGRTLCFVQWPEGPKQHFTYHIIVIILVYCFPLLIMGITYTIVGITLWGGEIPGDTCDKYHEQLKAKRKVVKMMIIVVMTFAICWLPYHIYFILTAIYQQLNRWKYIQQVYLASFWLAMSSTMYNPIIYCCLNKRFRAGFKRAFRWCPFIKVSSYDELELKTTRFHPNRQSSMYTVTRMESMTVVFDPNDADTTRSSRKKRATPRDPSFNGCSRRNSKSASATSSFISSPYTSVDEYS
Chain of CYP2D6 (P10635 whole entry): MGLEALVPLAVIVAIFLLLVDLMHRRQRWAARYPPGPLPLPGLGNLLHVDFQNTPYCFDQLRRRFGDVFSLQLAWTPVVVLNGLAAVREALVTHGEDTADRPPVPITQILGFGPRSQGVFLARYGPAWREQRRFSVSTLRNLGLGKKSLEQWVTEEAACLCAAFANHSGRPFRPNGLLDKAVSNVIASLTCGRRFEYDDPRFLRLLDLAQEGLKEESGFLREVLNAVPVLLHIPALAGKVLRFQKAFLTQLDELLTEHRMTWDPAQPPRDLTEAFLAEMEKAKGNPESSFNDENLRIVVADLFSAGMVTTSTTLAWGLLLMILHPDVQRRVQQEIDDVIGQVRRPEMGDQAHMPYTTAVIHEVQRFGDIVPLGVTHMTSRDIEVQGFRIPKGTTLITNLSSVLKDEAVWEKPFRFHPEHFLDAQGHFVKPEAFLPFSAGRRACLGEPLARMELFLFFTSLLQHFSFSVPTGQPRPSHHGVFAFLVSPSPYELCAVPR
T5 sequence (P29274 whole entry): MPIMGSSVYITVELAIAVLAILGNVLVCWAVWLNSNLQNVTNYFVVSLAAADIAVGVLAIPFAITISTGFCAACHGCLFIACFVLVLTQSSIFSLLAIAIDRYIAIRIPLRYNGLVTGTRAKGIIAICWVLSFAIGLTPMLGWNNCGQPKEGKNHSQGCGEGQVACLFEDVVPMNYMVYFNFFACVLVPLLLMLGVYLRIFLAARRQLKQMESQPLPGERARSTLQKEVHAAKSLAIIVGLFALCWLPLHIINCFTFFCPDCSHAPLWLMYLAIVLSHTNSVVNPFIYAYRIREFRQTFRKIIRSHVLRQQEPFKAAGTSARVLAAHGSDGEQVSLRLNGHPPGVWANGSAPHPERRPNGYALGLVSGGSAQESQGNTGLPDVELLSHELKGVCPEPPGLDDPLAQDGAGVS
T10 sequence (P49146 whole entry): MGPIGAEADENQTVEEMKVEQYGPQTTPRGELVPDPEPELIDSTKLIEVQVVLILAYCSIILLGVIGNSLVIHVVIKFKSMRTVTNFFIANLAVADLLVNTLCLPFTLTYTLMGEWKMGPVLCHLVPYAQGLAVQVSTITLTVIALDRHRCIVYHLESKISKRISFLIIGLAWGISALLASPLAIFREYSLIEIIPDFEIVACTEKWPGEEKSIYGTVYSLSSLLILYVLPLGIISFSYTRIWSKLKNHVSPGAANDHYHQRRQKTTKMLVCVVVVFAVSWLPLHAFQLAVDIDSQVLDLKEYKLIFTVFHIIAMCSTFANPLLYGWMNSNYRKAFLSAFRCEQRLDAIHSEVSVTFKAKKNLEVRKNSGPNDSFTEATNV
T7 sequence (P30542 whole entry): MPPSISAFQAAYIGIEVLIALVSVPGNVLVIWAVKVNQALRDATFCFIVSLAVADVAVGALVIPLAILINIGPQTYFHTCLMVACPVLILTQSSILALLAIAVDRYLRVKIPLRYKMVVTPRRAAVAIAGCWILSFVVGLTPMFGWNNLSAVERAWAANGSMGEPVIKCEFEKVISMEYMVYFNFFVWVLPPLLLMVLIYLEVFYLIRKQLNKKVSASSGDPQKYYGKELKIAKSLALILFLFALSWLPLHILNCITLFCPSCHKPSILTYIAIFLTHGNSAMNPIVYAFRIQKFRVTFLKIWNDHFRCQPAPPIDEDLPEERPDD

CCCCN1CCN(C(=N)c2cccc(NC(=O)Nc3ccc(S(=O)(=O)NCc4ccc(S(N)(=O)=O)cc4)cc3)c2)CC1 [SC81458, 4-(3-(3-((4-butylpiperazin-1-yl)(imino)methyl)phenyl)ureido)-N-(4-sulfamoylbenzyl) benzenesulfonamide]
Inhibition of control specific binding (5-HT1B): -3%
Inhibition of control specific binding (NTS1 (NT1) (h)): 1%
Inhibition of control specific binding (M3 (h)): 48%
binding potential to 54 human transporters and receptors [1]: low to moderate
remaining after 60 min of incubation [2]: 74%
Inhibition of control specific binding (MC4 (h)): -10%
Inhibition of control specific binding (A2A (h)): 5%
Inhibition of control specific binding (a1 (non-selective)): 21%
Inhibition of control specific binding (a2 (non-selective)): 21%
Inhibition of control specific binding [3]: 17%
Inhibition of control specific binding (5-HT2B (h)): 37%
Inhibition of control specific binding (sst (non-selective)): -2%
inhibition potential towards 13 human cytochrome P450 enzymes [4]: low
Inhibition of control specific binding (A1 (h)): 7%
Papp at 2 h, 10 μM (Permeability assay): 0.76 ×10⁻⁶ cm/s
IC50 [5]: 1800 ± 200 nM
IC50 [6]: 76 ± 6 nM
IC50 [7]: 0.4 ± 0.05 nM
Remaining enzyme activity (CYP2D6): 107%
Inhibition of control specific binding (NK3 (h)): 6%
Inhibition of control specific binding (CB1 (h)): 21%
Inhibition of control specific binding (Cl- channel (GABA-gated)): -28%
Inhibition of control specific binding (Y2 (h)): -20%
remaining after 60 min of incubation [8]: almost completely metabolized
Inhibition of control specific binding (V1a (h)): -1%
Inhibition of control specific binding (TP (h) (TXA2/PGH2)): -10%
Inhibition of control specific binding [9]: 73%

COC(=O)N1CCN(C(=N)c2cccc(NC(=O)Nc3ccc(S(=O)(=O)NCc4ccc(S(N)(=O)=O)cc4)cc3)c2)CC1 [SC83288, methyl 4-(imino(3-(3-(4-(N-(4-sulfamoylbenzyl)sulfamoyl)phenyl)ureido)phenyl)methyl) piperazine-1-carboxylate]
Inhibition of control specific binding (5-HT1B): 6%
Inhibition of control specific binding (NTS1 (NT1) (h)): 1%
Inhibition of control specific binding (M3 (h)): 55%
binding potential to 54 human transporters and receptors [1]: low to moderate
remaining after 60 min of incubation [2]: 91%
Inhibition of control specific binding (MC4 (h)): 4%
Inhibition of control specific binding (A2A (h)): 13%
Inhibition of control specific binding (a1 (non-selective)): 9%
Inhibition of control specific binding (a2 (non-selective)): 14%
Inhibition of control specific binding [3]: 14%
Inhibition of control specific binding (5-HT2B (h)): 17%
Inhibition of control specific binding (sst (non-selective)): 4%
inhibition potential towards 13 human cytochrome P450 enzymes [4]: low
Inhibition of control specific binding (A1 (h)): 8%
Papp at 2 h, 10 μM (Permeability assay): 0.42 ×10⁻⁶ cm/s
IC50 [5]: > 30000 nM
IC50 [6]: 199 ± 30 nM
IC50 [7]: 2 ± 1 nM
Remaining enzyme activity (CYP2D6): 91%
Inhibition of control specific binding (NK3 (h)): 5%
Inhibition of control specific binding (CB1 (h)): 1%
Inhibition of control specific binding (Cl- channel (GABA-gated)): -37%
Inhibition of control specific binding (Y2 (h)): -4%
remaining after 60 min of incubation [8]: 51%
Inhibition of control specific binding (V1a (h)): 11%
Inhibition of control specific binding (TP (h) (TXA2/PGH2)): -5%
Inhibition of control specific binding [9]: 59%
